Assay results from patent publication US11198713B2, “Agents modulating beta-catenin functions and methods thereof” (FOG PHARMACEUTICALS, INC., priority 2017, dated 2021).
pEC50: −log10 of the molar value. Values after ≈ are worked out from the molar mass of the structure shown. Read-outs that look alike come from different tables or passages of the source. Numbered stars: 1 amine (or outer) side, 2 acyl side, 3 side chain; on linkers, the order of the positions; unused ones are H or OH. Bridge positions count the residues as written; N and C are the ends. Square brackets hold non-standard residues; d marks the D form. Peptide text beside a SMILES is read from it. 3Aminoazetidine3carboxyl = O=C(C1(N[*:1])CN([*:3])C1)[*:2]; dαMeDab(Me) = CN(CC[C@@](C)(N[*:1])C(=O)[*:2])[*:3]; αMeDab(Me) = CN(CC[C@](C)(N[*:1])C(=O)[*:2])[*:3]; X8 = CN(CC=[*:3])CCC[C@](C)(N[*:1])C(=O)[*:2]; X3 = O=C([C@@]1(N[*:1])CCN([*:3])C1)[*:2]; X7 = C[C@](CCCCC=[*:3])(N[*:1])C(=O)[*:2]; X1 = O=C([C@]1(N[*:1])CCN([*:3])C1)[*:2]; X9 = C[C@](CCC=[*:3])(N[*:1])C(=O)[*:2]; X2 = O=C(OCC=CCOC(=O)[*:2])[*:1]; R5 = C=CCCC[C@@](C)(N)C(=O)O

Assays:
[1] = Solubility in DPBS (A280 of supernatant); format: physicochemical; settings: DPBS
Experimental: Suitable assays for assessing solubility are widely known in the art and can be utilized in accordance with the present disclosure. In some embodiments, in an exemplary protocol, dried peptide was reconstituted in DPBS (DPBS, 1×, cell culture grade, Sigma D8537) in triplicate, vortexed, sonicated and then centrifuged. Absorbance of the supernatant was measured at A280 (Nanodrop 2000) and the concentration was determined using the extinction coefficient for tryptophan. Exemplary solubility data are presented in, e.g., Table 2.

[2] = biological target: T1, full-length beta-catenin (Axin site) (Homo sapiens, UniProt P35222); assay: Competition fluorescence polarization assay (Axin site probe); format: binding; settings: competition fluorescence polarization, Table 2; read-out: in vitro FP EC50
T1 construct: 15 nM full-length beta-catenin, 20 nM FITC labeled peptide in buffer
T1 sequence (P35222 1-781): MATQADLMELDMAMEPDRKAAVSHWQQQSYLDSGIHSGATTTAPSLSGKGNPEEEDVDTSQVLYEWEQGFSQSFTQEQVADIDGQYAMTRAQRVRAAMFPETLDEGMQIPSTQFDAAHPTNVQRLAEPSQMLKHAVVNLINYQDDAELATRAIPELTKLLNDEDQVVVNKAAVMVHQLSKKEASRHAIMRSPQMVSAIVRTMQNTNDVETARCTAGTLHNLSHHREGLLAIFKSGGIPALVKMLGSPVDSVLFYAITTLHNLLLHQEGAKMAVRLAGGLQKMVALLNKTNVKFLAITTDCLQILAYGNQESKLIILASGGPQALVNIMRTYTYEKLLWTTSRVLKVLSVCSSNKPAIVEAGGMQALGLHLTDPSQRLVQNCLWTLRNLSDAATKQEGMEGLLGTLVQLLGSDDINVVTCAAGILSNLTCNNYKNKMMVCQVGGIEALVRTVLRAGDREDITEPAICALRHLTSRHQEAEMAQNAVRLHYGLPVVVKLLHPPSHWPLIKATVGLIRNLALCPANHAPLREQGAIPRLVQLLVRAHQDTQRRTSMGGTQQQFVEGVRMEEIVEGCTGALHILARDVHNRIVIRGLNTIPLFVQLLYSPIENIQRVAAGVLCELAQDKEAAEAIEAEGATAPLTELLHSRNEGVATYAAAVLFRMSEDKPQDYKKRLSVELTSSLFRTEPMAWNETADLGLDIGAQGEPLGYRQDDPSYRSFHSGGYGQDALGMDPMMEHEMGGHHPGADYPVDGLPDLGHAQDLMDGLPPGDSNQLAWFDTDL
Summary of the method: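 Competition FP: 15 nM full-length β-catenin pre-incubated 5 min with 20 nM FITC-labelled stapled Axin-site peptide, then titrated peptide added (3-fold series from 5 μM) for 15 min in the dark. Buffer 50 mM Tris pH 8.0, 250 mM NaCl, 2% glycerol, 0.5 mM EDTA; duplicate reads.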

[3] = Table 3 Part B, amino-stapled product, read-out: Solubility in DPBS
[4] = Table 3 Part A, read-out: Solubility in DPBS

SMILES | solubility ([1]; Table 2, read-out: Solubility) | solubility [1, 3] | pEC50 [2] | solubility thermodynamic [1, 4] | solubility [1, 4]
CC[C@H](C)[C@@H]1NC(=O)[C@H](Cc2c[nH]cn2)NC(=O)[C@H](C)NC(=O)[C@H](CC(=O)O)NC(=O)[C@H](CC(C)C)NC(=O)[C@H]([C@@H](C)CC)NC(=O)[C@](C)(NC(=O)[C@H](C)NC(C)=O)CCCC=CCN(C)CCC[C@@](C)(C(=O)N[C@@H](CCCNC(=N)N)C(=O)N[C@H](C(=O)N[C@@H](Cc2c[nH]c3ccccc23)C(N)=O)C(C)C)NC1=O [FP0510a, Ac-A-R5-I-L-D-A-H-I-MH-R-V-W-NH2] (Ac-A[R5]ILDAHI[X8]RVW-NH2; staple 2-9) | 165 µM (≈ 252 µg/mL) | 165 µM (≈ 252 µg/mL) | 5.30 to 6.30 |  | 
CC[C@H](C)[C@@H]1NC(=O)[C@H](Cc2c[nH]cn2)NC(=O)[C@H](C)NC(=O)[C@H](CC(=O)O)NC(=O)[C@H](CC(C)C)NC(=O)[C@H]([C@@H](C)CC)NC(=O)[C@](C)(NC(=O)[C@H](C)NC(C)=O)CCC=CCN(C)CCC[C@@](C)(C(=O)N[C@@H](CCCNC(=N)N)C(=O)N[C@H](C(=O)N[C@@H](Cc2c[nH]c3ccccc23)C(N)=O)C(C)C)NC1=O [FP0509a, Ac-A-R4-I-L-D-A-H-I-MH-R-V-W-NH2] (Ac-A[X9]ILDAHI[X8]RVW-NH2; staple 2-9) | 192 µM (≈ 291 µg/mL) | 192 µM (≈ 291 µg/mL) | 5.30 to 6.30 |  | 
CC[C@H](C)[C@@H]1NC(=O)[C@H](Cc2c[nH]cn2)NC(=O)[C@H](C)NC(=O)[C@H](CC(=O)O)NC(=O)[C@H](CC(C)C)NC(=O)[C@H]([C@@H](C)CC)NC(=O)[C@](C)(NC(=O)[C@H](C)NC(=O)CCN)CCCCCCC=CCOC(=O)N2CC[C@@](C(=O)N[C@@H](CCCNC(=N)N)C(=O)N[C@H](C(=O)N[C@@H](Cc3c[nH]c4ccccc34)C(N)=O)C(C)C)(C2)NC1=O [FP0217c_bAfree, bA-A-R8-I-L-D-A-H-I-MB-R-V-W-NH2] | 155 µM (≈ 250 µg/mL) |  | > 7.00 |  | 
CC[C@H](C)[C@@H]1NC(=O)[C@H](Cc2c[nH]cn2)NC(=O)[C@H](C)NC(=O)[C@H](CC(=O)O)NC(=O)[C@H](CC(C)C)NC(=O)[C@H]([C@@H](C)CC)NC(=O)[C@](C)(NC(=O)[C@H](C)NC(C)=O)CCCCC=CCN(C)CCC[C@@](C)(C(=O)N[C@@H](CCCNC(=N)N)C(=O)N[C@H](C(=O)N[C@@H](Cc2c[nH]c3ccccc23)C(N)=O)C(C)C)NC1=O [FP0511a, Ac-A-R6-I-L-D-A-H-I-MH-R-V-W-NH2] (Ac-A[X7]ILDAHI[X8]RVW-NH2; staple 2-9) | 170 µM (≈ 262 µg/mL) | 170 µM (≈ 262 µg/mL) | > 7.00 |  | 
CC[C@H](C)[C@@H]1NC(=O)[C@H](Cc2c[nH]cn2)NC(=O)[C@H](C)NC(=O)[C@H](CC(=O)O)NC(=O)[C@H](CC(C)C)NC(=O)[C@H]([C@@H](C)CC)NC(=O)[C@](C)(NC(=O)[C@H](C)NC(C)=O)CCN(C)C(=O)OCC=CCOC(=O)N2CC[C@](C(=O)N[C@@H](CCCNC(=N)N)C(=O)N[C@H](C(=O)N[C@@H](Cc3c[nH]c4ccccc34)C(N)=O)C(C)C)(C2)NC1=O [FP0598c, Ac-A-MG-I-L-D-A-H-I-MC-R-V-W-NH2] (Ac-A[dαMeDab(Me)]ILDAHI[X3]RVW-NH2; linker 2-9 via X2) |  |  | > 7.00 | 91 µM (≈ 147 µg/mL) | 
CC[C@H](C)[C@@H]1NC(=O)[C@H](Cc2c[nH]cn2)NC(=O)[C@H](C)NC(=O)[C@H](CC(=O)O)NC(=O)[C@H](CC(C)C)NC(=O)[C@H]([C@@H](C)CC)NC(=O)C2(NC(=O)[C@H](C)NC(C)=O)CN(C2)C(=O)OCC=CCOC(=O)N2CC[C@@](C(=O)N[C@@H](CCCNC(=N)N)C(=O)N[C@H](C(=O)N[C@@H](Cc3c[nH]c4ccccc34)C(N)=O)C(C)C)(C2)NC1=O [FP0617c, Ac-A-MA-I-L-D-A-H-I-MB-R-V-W-NH2] (Ac-A[3Aminoazetidine3carboxyl]ILDAHI[X1]RVW-NH2; linker 2-9 via X2) | 63 µM (≈ 99.8 µg/mL) |  | > 7.00 |  | 63 µM (≈ 99.8 µg/mL)
CC[C@H](C)[C@@H]1NC(=O)[C@H](Cc2c[nH]cn2)NC(=O)[C@H](C)NC(=O)[C@H](CC(=O)O)NC(=O)[C@H](CC(C)C)NC(=O)[C@H]([C@@H](C)CC)NC(=O)[C@@](C)(NC(=O)[C@H](C)NC(C)=O)CCN(C)C(=O)OCC=CCOC(=O)N2CC[C@@](C(=O)N[C@@H](CCCNC(=N)N)C(=O)N[C@H](C(=O)N[C@@H](Cc3c[nH]c4ccccc34)C(N)=O)C(C)C)(C2)NC1=O [FP0626c, Ac-A-MF-I-L-D-A-H-I-MB-R-V-W-NH2] (Ac-A[αMeDab(Me)]ILDAHI[X1]RVW-NH2; linker 2-9 via X2) | 40 µM (≈ 64.6 µg/mL) |  | > 7.00 |  | 40 µM (≈ 64.6 µg/mL)
